# Measured values from patent publication US20250144054A1, “SMALL MOLECULE STAT3 INHIBITOR FOR TREATING TRIPLE NEGATIVE BREAST CANCER” (UNIVERSITY OF MARYLAND, BALTIMORE, priority 2022, published 2025).
# Tests used:
# [1] = system: STAT3; test: IL-6 induced STAT3 phosphorylation, Western blot, MDA-MB-231 cells; type: cell-based, human; conditions: pretreated 2 hours serum-free, 50 ng/ml IL-6 30 minutes
# Protocol: (§1) (A) The chemical structures of LLL12B and LLL12. The carbamate ester bond of LLL12B is hydrolytically cleaved by the tumor-associated plasmin to release LLL12. (B) SUM159 cells were seeded in a 6-well plate and treated with LLL12B for 8 hours. Cells were stained with Phospho-Stat3 (Tyr705) and DAPI (indicated by arrows). Green: P-STAT3 (Y705); Blue: DAPI. T47D (C) and MDA-MB-231 (D) breast cancer cells were pretreated with DMSO or LLL12B in a serum-free medium for 2 hours and stimulated with 50 ng/ml of IL-6, IFN-γ, or EGF for additional 30 minutes. Cells were collected and analyzed by Western blot. GAPDH served as a protein loading control.
# (§2) Western blot. Cells were collected and total protein was extracted using cell lysis buffer (Cell Signaling Technology, Danvers, MA, USA). Protein concentration was determined using the Pierce BCA Protein Assay Kit (Thermo Fisher Scientific, Waltham, MA, USA) according to the manufacturer's instructions. Equal amounts of protein were separated by 10% SDS-PAGE gels and transferred to PVDF membranes. Membranes were blocked in 5% non-fat milk at room temperature and probed with specific antibodies P-STAT3 (Y705), STAT3, Cyclin D1, Cleaved Caspase-3, P-STAT1 (Y701), STAT1, P-ERK, ERK or GAPDH (1:1000, Cell Signaling Technology, Danvers, MA, USA) at 4° C. overnight. […]
# [2] = system: STAT1; test: IFN-γ induced STAT1 phosphorylation, Western blot, T47D cells; type: cell-based, human; conditions: pretreated 2 hours, 50 ng/ml IFN-γ 30 minutes
# Protocol: as §1, §2
# [3] = system: ERK; test: EGF induced ERK phosphorylation, Western blot, MDA-MB-231 cells; type: cell-based, human; conditions: pretreated 2 hours, 50 ng/ml EGF 30 minutes
# Protocol: as §1, §2
# [4] = system: STAT3; test: Western blot of P-STAT3 (Y705), STAT3, Cyclin D1, Cleaved Caspase-3 in 4T1 cells; type: cell-based, murine; conditions: 4T1, overnight, vs DMSO
# Protocol: (A) MDA-MB-231, SUM159, and 4T1 cell lines were treated with DMSO or LLL12B overnight and the expression levels of P-STAT3 (Y705), STAT3, Cyclin D1, and Cleaved Caspase-3 were analyzed by Western blot. GAPDH served as a protein loading control. (B) MDA-MB-231 cells were treated with DMSO or C188-9 overnight and the expression levels of P-STAT3 (Y705), STAT3, Cyclin D1, and Cleaved Caspase-3 were analyzed by Western blot. (C) MDA-MB-231, SUM159, and 4T1 cells were seeded in a 96-well plate and treated with DMSO or LLL12B for 5 hours and a Caspase-3/7 Fluorescence Assay Kit was used to detect the activation of caspase-3/7. (D) MDA-MB-231, SUM159, and 4T1 cell lines were treated with DMSO or LLL12B for 8-12 hours, and flow cytometry was performed to analyze annexin V and PI staining. The quantification of apoptotic cells was shown in the right panel. ** P<0.01, *** P<0.001 and ****P<0.0001.
# SiRNA and transfection. STAT3 siRNA and Negative Control siRNA (Cell Signaling Technology, Danvers, MA, USA) were used to knock down STAT3 in MDA-MB-231, SUM159, and 4T1 cell lines. Cells were transfected with STAT3 siRNA or Negative Control siRNA using Lipofectamine RNAiMAX (Invitrogen, Carlsbad, CA, USA) according to the manufacturer's instructions. After 72 hours, cell viability was examined by MTT cell viability assay, and the transfection efficiency was examined by western blot.
# as §2
# [5] = system: caspase-3/7; test: Caspase-3/7 activity assay, SUM159 cells; type: cell-based, human; conditions: SUM159, 5 hours, vs DMSO
# Protocol: Caspase-3/7 activity assay. The Caspase-3/7 Fluorescence Assay Kit (Cayman, Ann Arbor, MI, USA) was used to detect the activation of caspase-3/7 and the assay was performed according to the manufacturer's instructions. Briefly, MDA-MB-231, SUM159, and 4T1 cells were seeded in a 96-well plate in triplicate. After overnight incubation, cells were treated with either LLL12B or DMSO for 5 hours. Cells were lysed and processed to measure caspase-3/7 activity and the fluorescence intensity was read (excitation=485 nm; emission=535 nm).
# [6] = system: SUM159 cells; test: Wound healing assay, SUM159 cells; type: cell-based, human; conditions: SUM159, vs DMSO
# Protocol: (§3) Wound healing assay. MDA-MB-231, SUM159, and 4T1 cells were seeded in a 6-well plate and cultured until fully confluent. A straight scratch crossing the monolayer was created using a 200 μl pipette tip and images of scratched areas were taken. Next, cells were treated with DMSO or LLL12B. Then, images were taken until the scratch of DMSO-treated cells was closed and the relative migration (%) was calculated.
# Given the relevance between cancer cell migration and metastasis, cell migration was evaluated using wound healing assay following LLL12B and Talazoparib treatment.
# In FIG. 12, L: LLL12B; T: Talazoparib; L0.5:0.5 μM LLL12B; L0.25:0.25 μM LLL12B; T0.5:0.5 μM Talazoparib; T10: 10 μM Talazoparib. In FIG. 13, L: LLL12B; T: Talazoparib; L0.5:0.5μ M LLL12B; T10: 10μ M Talazoparib; T20: 20μ M Talazoparib. In FIG. 14, L: LLL12B; T: Talazoparib; L0.5:0.5μ M LLL12B; T10: 10μ M Talazoparib; T20: 20μ M Talazoparib.
# L: LLL12B; A: Abemaciclib; L0.5:0.5 μM LLL12B; A2.5:2.5 μM Abemaciclib; A1: 1 μM Abemaciclib
# [7] = system: 4T1 cells; test: Wound healing assay, 4T1 cells; type: cell-based, murine; conditions: 4T1, vs DMSO
# Protocol: as §3
# [8] = system: HPAC cells; test: Wound healing assay, HPAC cells; type: cell-based, human; conditions: approximate 24 hours
# Protocol: The inhibitory effects on cell migration by LLL12B in pancreatic cancer cells was also examined. The human HPAC pancreatic cancer cells were seeded and allowed to attach for 24 hours. Then cells were treated with different concentrations of LLL12B for approximate 24 hours and the cell migration was determined by wound healing assay.
# [9] = system: medulloblastoma cells; conditions: refs [25,31]; cited from earlier work
# [10] = molecular target: STAT3 (Homo sapiens, UniProt P40763); conditions: refs [25,27,28]; cited from earlier work
# Sequence of STAT3 (Homo sapiens, UniProt P40763) (P40763 whole entry, species assumed): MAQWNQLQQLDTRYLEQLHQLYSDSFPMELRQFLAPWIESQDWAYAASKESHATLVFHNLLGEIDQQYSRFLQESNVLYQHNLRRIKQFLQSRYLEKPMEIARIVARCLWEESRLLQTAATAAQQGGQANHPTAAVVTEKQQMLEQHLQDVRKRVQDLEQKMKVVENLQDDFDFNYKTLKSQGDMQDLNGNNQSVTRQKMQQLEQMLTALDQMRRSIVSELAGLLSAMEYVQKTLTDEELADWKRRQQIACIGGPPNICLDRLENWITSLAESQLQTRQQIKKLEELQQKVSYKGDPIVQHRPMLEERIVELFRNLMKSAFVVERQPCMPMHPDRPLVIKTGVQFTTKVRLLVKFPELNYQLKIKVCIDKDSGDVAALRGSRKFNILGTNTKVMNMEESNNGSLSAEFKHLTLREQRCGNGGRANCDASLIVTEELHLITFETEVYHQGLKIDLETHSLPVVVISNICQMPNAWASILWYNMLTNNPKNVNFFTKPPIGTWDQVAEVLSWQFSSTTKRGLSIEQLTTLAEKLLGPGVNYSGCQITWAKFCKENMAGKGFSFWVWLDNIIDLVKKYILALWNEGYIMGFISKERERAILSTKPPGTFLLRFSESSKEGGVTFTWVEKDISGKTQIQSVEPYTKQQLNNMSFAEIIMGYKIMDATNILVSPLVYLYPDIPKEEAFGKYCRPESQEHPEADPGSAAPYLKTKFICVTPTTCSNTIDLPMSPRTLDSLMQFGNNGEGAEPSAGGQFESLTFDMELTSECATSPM
smiles,measurement,setting,value
CN(C)C(=O)Oc1cccc2c1C(=O)c1cccc(S(N)(=O)=O)c1C2=O [LLL12B],IL-6 induced phosphorylation of STAT3 (Y705),[1],inhibited
same,induction of P-STAT1 (Y701) stimulated by IFN-γ,[2],did not inhibit
same,inhibition of P-ERK stimulated by EGF,[3],little effect
same,Cyclin D1 expression,[4],decreased
same,expression of Cleaved Caspase-3,[4],enhanced
same,phosphorylation of STAT3,[4],decreased
same,activation of caspase-3/7,[5],induced the activation
same,wound closure (cell migration),[6],effectively inhibited
same,wound closure (cell migration),[7],effectively inhibited
same,cell migration,[8],significantly inhibits
same,apoptosis,[9],induced apoptosis
same,tumor growth,[9],suppressed tumor growth
same,binding to the pTyr705 binding site of STAT3,[10],binds directly
